# According to publication PMC3322284 (Journal of Pharmacological and Toxicological Methods, 2012):
# pIC50, pKd: −log10 of the molar value. Read-outs that look alike come from different tables or passages of the source. Non-standard residues stand in square brackets, D forms with d. Residues, ends and D or L forms follow the SMILES beside them. *: point of attachment. Sta = CC(C)C[C@H](N)[C@@H](O)CC(=O)O; Isovaleryl = CC(C)CC(=O)*
# Columns and labels:
# hamster Abcb1a Pgp [1] = biological target: T1, hamster Abcb1a Pgp (Cricetulus griseus, UniProt P21448); assay: biochemical; assay type: binding
# [2] = humans; ref Fenner et al., 2009; cited from earlier work
# hamster Abcb1a Pgp [3] = biological target: T1, hamster Abcb1a Pgp; assay: Fluorosome-trans-pgp
# human MDR1 Pgp = human MDR1 Pgp (Homo sapiens, UniProt P08183); assay: Inhibition of net [3H]digoxin transport in LLC-MDR1 cell monolayers; assay type: cell-based
# [4] = IC50,Fl, Table 2, half-maximal concentration for inhibition of transport in Fl-t-pgp
# [5] = IC50 Fl-t-pgp, inhibition of S-HR transport, 2 mM ATP, 23°C
# [6] = read-out: IC50 Fl-t-pgp, inhibition of S-HR transport, 2 mM ATP, 23°C
# T1 sequence (P21448 whole entry): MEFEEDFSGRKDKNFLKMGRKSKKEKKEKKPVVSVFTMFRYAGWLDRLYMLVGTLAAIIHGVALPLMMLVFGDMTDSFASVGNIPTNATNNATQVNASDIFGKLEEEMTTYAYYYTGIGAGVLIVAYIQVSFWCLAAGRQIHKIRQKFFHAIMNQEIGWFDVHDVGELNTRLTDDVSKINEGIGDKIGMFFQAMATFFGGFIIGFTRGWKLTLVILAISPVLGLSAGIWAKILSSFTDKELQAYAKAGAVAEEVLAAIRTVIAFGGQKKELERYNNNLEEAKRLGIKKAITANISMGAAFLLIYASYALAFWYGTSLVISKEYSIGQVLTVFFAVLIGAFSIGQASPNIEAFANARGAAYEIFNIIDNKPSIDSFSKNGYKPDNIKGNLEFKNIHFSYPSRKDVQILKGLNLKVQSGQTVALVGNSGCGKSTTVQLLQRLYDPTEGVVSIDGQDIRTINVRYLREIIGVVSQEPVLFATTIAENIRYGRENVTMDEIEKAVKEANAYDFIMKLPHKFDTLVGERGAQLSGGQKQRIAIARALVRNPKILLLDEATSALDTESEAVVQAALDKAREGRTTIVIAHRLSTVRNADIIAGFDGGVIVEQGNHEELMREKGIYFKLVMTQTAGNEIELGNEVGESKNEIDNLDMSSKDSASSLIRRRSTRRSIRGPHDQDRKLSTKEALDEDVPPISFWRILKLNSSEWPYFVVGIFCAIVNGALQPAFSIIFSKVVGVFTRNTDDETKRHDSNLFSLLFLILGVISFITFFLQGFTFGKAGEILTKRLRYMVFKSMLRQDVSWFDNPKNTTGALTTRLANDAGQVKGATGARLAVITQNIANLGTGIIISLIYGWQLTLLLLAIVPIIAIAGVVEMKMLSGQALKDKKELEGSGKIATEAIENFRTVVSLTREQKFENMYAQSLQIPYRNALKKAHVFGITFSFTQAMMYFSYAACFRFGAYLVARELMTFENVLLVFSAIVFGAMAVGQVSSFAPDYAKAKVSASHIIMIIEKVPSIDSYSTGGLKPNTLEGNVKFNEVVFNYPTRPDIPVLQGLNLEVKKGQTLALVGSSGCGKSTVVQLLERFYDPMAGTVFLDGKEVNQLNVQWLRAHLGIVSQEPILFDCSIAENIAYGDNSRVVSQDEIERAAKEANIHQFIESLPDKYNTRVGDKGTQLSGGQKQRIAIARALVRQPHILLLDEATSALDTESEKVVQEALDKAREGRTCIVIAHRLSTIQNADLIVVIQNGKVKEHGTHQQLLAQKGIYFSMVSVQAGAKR
# human MDR1 Pgp, sequence (P08183 whole entry): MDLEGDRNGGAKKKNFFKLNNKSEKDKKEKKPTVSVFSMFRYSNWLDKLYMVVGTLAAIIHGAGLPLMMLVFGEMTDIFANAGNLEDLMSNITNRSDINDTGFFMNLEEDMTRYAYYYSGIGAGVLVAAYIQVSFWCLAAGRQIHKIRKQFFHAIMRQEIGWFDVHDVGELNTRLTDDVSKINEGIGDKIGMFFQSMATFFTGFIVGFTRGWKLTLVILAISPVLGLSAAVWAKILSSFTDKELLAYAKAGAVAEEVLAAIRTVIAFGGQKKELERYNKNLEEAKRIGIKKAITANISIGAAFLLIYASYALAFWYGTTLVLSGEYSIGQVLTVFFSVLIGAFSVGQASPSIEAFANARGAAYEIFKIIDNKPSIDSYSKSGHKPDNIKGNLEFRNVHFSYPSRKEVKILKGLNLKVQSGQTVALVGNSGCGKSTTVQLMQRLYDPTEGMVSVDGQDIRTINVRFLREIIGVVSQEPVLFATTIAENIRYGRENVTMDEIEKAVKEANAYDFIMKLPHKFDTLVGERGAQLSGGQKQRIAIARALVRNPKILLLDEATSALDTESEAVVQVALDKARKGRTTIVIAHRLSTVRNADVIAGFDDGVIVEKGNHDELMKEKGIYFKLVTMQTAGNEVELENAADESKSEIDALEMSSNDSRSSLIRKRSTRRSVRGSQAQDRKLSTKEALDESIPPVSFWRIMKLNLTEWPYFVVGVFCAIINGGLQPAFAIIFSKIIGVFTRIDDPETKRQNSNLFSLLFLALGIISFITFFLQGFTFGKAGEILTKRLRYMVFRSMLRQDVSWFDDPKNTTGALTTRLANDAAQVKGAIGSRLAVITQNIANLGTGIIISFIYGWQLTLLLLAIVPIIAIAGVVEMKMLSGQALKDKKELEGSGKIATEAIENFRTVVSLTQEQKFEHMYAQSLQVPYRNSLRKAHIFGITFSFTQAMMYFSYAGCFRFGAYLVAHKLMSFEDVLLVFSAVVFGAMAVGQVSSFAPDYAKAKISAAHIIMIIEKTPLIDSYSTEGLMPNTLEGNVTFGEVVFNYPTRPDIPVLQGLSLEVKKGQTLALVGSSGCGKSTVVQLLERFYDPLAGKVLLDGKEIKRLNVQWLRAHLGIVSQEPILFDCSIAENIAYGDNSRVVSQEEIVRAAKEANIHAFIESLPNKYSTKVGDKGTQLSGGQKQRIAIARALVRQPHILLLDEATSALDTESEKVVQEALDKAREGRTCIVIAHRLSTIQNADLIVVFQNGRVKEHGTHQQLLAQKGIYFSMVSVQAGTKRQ
SMILES,pIC50 (hamster Abcb1a Pgp [3]; [4]),pIC50 (hamster Abcb1a Pgp [3]; [5]),[I2] estimated gastrointestinal concentration of drug after oral dose [2] [µM],[I] peak plasma concentration of drug at steady state [2] [µM],other results
COC(=O)C1=C(C)NC(C)=C(C(=O)OCCN(C)Cc2ccccc2)C1c1cccc([N+](=O)[O-])c1 (centres unmarked) [Nicardipine],6.03,6.03,248,0.18,pKd (hamster Abcb1a Pgp [1]): 5.19
CC(=O)O[C@H]1C(=O)[C@@]2(C)[C@H]([C@H](OC(=O)c3ccccc3)[C@]3(O)C[C@H](OC(=O)[C@H](O)[C@@H](NC(=O)c4ccccc4)c4ccccc4)C(C)=C1C3(C)C)[C@]1(OC(C)=O)CO[C@@H]1C[C@@H]2O [Paclitaxel],,5.92,,,pKd (hamster Abcb1a Pgp [1]): 7.42
C=CCN1CC[C@]23c4c5ccc(O)c4O[C@H]2C(=O)CC[C@@]3(O)[C@H]1C5 [Naloxone],,,,,pIC50 (hamster Abcb1a Pgp [3]): 3.68
COc1ccc([C@@H]2Sc3ccccc3N(CCN(C)C)C(=O)[C@@H]2OC(C)=O)cc1 [Diltiazem],4.62,4.62,,,
CCCCc1oc2ccccc2c1C(=O)c1cc(I)c(OCCN(CC)CC)c(I)c1 [Amiodarone],,,4693,,
COC(=O)C1=C(C)NC(C)=C(C(=O)OC(C)C)C1c1cccc2nonc12 (centres unmarked) [Isradipine],5.18,5.18,161.5,0.02,pIC50 (human MDR1 Pgp): 4.54
CCc1oc2ccccc2c1C(=O)c1cc(Br)c(O)c(Br)c1 [Benzbromarone],,,,,pIC50 (hamster Abcb1a Pgp [3]): 4.36
COc1cc2c(cc1OC)CN(CCc1ccc(NC(=O)c3cccc4c(=O)c5cccc(OC)c5[nH]c34)cc1)CC2 [Elacridar],,7.00,,,pKd (hamster Abcb1a Pgp [1]): 6.23
CC(=O)NC(CC(C)C)C(=O)NC(CC(C)C)C(=O)NC(Cc1ccc(O)cc1)C(N)=O (stereo not drawn) [NAc-LLY-amide] (Ac-Leu-Leu-Tyr-NH2; configuration not given here),,,,,pIC50 (hamster Abcb1a Pgp [3]; [6]): 4.89
C[C@H]1O[C@@H](O[C@H]2[C@@H](O)C[C@H](O[C@H]3[C@@H](O)C[C@H](O[C@H]4CC[C@@]5(C)[C@H](CC[C@@H]6[C@@H]5C[C@@H](O)[C@]5(C)[C@@H](C7=CC(=O)OC7)CC[C@]65O)C4)O[C@@H]3C)O[C@@H]2C)C[C@H](O)[C@@H]1O [Digoxin],,4.10,,,
C[C@]12CC[C@H](O)C[C@H]1CC[C@@H]1[C@@H]2C[C@@H](O)[C@]2(C)[C@@H](C3=CC(=O)OC3)CC[C@]12O [Digoxigenin],,,,,pIC50 (hamster Abcb1a Pgp [3]): 3.28
O[C@@H](COc1cccc2ncccc12)CN1CCN([C@@H]2c3ccccc3[C@@H]3[C@H](c4ccccc42)C3(F)F)CC1 [Zosuquidar],,,,,pKd (hamster Abcb1a Pgp [1]; fluorescence quenching of purified Pgp in 2 mM CHAPS): 7.26; pIC50 (hamster Abcb1a Pgp [3]; [6]): 6.23
CCOC(=O)C1=C(C)NC(C)=C(C(=O)OC)C1c1cccc([N+](=O)[O-])c1 (centres unmarked) [Nitrendipine],5.24,5.24,222.0,0.03,
COCC(=O)O[C@]1(CCN(C)CCCc2nc3ccccc3[nH]2)CCc2cc(F)ccc2[C@@H]1C(C)C [Mibefradil],5.15,5.15,1211,2.42,
COc1ccc2c3c([nH]c2c1)[C@H](CC(C)C)N1C(=O)[C@H](CCC(=O)OC(C)(C)C)NC(=O)[C@@H]1C3 [Ko143],,,,,pIC50 (hamster Abcb1a Pgp [3]; [6]): 5.12
COc1ccccc1OCCNCC(O)COc1cccc2[nH]c3ccccc3c12 (centres unmarked) [Carvedilol],5.42,5.42,61.5,0.13,pIC50 (human MDR1 Pgp): 4.49
COc1ccc2c(c1)c(CC(=O)O)c(C)n2C(=O)c1ccc(Cl)cc1 [Indomethacin],,4.29,,,
Cc1c(O)cccc1C(=O)N[C@@H](CSc1ccccc1)[C@H](O)CN1C[C@H]2CCCC[C@H]2C[C@H]1C(=O)NC(C)(C)C [Nelfinavir],,6.23,,,pKd (hamster Abcb1a Pgp [1]): 6.01
COc1cc2c(cc1OC)CN(CCc1ccc(NC(=O)c3cc(OC)c(OC)cc3NC(=O)c3cnc4ccccc4c3)cc1)CC2 [Tariquidar],,,,,pIC50 (hamster Abcb1a Pgp [3]): 7.68
C[C@H](CS)C(=O)N1CCC[C@H]1C(=O)O [Captopril],,,230,0.23,pIC50 (human MDR1 Pgp): < 3.00

# Further lines, with some results ahead:
pIC50 (hamster Abcb1a Pgp [3]; [4]),pIC50 (hamster Abcb1a Pgp [3]; [5]),SMILES,[I2] estimated gastrointestinal concentration of drug after oral dose [2] [µM],[I] peak plasma concentration of drug at steady state [2] [µM],other results
,3.62,CCCN(CCC)S(=O)(=O)c1ccc(C(=O)O)cc1 [Probenecid],,,
6.92,6.92,CCCc1nc2c(C)cc(-c3nc4ccccc4n3C)cc2n1Cc1ccc(-c2ccccc2C(=O)O)cc1 [Telmisartan],933,1.11,pIC50 (human MDR1 Pgp): 4.77
,4.54,CC(C)CC(=O)N[C@H](C(=O)N[C@H](C(=O)N[C@@H](CC(C)C)[C@@H](O)CC(=O)N[C@@H](C)C(=O)N[C@@H](CC(C)C)[C@@H](O)CC(=O)O)C(C)C)C(C)C [Pepstatin A] (Isovaleryl-VV[Sta]A[Sta]-OH),,,
,6.60,C/C=C/C[C@@H](C)C(=O)[C@H]1C(=O)N[C@@H](C(C)C)C(=O)N(C)CC(=O)N(C)[C@@H](CC(C)C)C(=O)N[C@@H](C(C)C)C(=O)N(C)[C@@H](CC(C)C)C(=O)N[C@@H](C)C(=O)N[C@H](C)C(=O)N(C)[C@@H](CC(C)C)C(=O)N(C)[C@@H](CC(C)C)C(=O)N(C)[C@@H](C(C)C)C(=O)N1C [Valspodar],,,pKd (hamster Abcb1a Pgp [1]): 7.10
5.28,5.28,Cc1c(C)c2c(c(C)c1O)CCC(C)(COc1ccc(CC3SC(=O)NC3=O)cc1)O2 (centres unmarked) [Troglitazone],3264,3.62,pIC50 (human MDR1 Pgp): 4.92
4.19,4.19,COc1ccccc1OCC(O)CN1CCN(CC(=O)Nc2c(C)cccc2C)CC1 (centres unmarked) [Ranolazine],9356,8.4,pIC50 (human MDR1 Pgp): 3.89
,6.51,COC(=O)[C@H]1[C@H]2C[C@@H]3c4[nH]c5cc(OC)ccc5c4CCN3C[C@H]2C[C@@H](OC(=O)c2cc(OC)c(OC)c(OC)c2)[C@@H]1OC [Reserpine],,,pKd (hamster Abcb1a Pgp [1]): 6.14
,5.43,CC(=O)[C@H]1CC[C@H]2[C@@H]3CCC4=CC(=O)CC[C@]4(C)[C@H]3CC[C@]12C [Progesterone],,,
4.54,4.54,CN[C@H]1CC[C@@H](c2ccc(Cl)c(Cl)c2)c2ccccc21 [Sertraline],2612,0.39,
